Experimental data published in patent US7183267B2, “β-lactamase inhibitors and methods of use thereof” (priority 2003, dated 2007).

What was measured:
[1] = target: β-lactamase wt (Escherichia coli, UniProt P62593); assay: Isothermal titration calorimetry, binding enthalpy, wild type
Procedure: (§1) The binding of the compounds of the present invention to β-lactamase was also measured by isothermal titration calorimetry.
(§2) These experiments, in combination with the inhibition assays, indicate that the compounds identified in this disclosure bind to the wild type as well as drug resistant beta lactamases with favorable binding enthalpies. This is a very important characteristic from the point of view of further optimization since it facilitates the achievement of extremely high affinities and low susceptibilities to drug resistant mutations and naturally occurring polymorphisms.
(§3) Isothermal titration calorimetry was performed on a high-precision VP-ITC titration calorimeter (Microcal Inc., Northampton, Mass.). β-Lactamase solutions were titrated with inhibitors in 50 mM sodium phosphate, 2% DMSO, pH 7.0, with β-lactamase concentrations ranging from 15 to 25 μM and inhibitor concentrations ranging from 300 to 1000 μM. The heat evolved from each injection was obtained by integrating the calorimetric signal. Heat of binding was obtained as the difference between the heat of reaction and the heat of inhibitor dilution. Data were analyzed using Origin 7.0 (OriginLab Corporation, Northampton, Mass.).

[2] = target: β-lactamase M69I (Escherichia coli, UniProt P62593, M67I); assay: Isothermal titration calorimetry, binding enthalpy, M69I mutant
Procedure: as §1, §2, §3

[3] = target: β-lactamase E104K (Escherichia coli, UniProt P62593, E102K); assay: Isothermal titration calorimetry, binding enthalpy, E104K mutant
Procedure: as §1, §2, §3

[4] = target: β-lactamase R244S (Escherichia coli, UniProt P62593, R241S); assay: Isothermal titration calorimetry, binding enthalpy, R244S mutant
Procedure: as §1, §2, §3

[5] = target: β-lactamase mutant E104K (Escherichia coli, UniProt P62593, E102K); assay type: biochemical; conditions: number higher than 1 reflects a loss of potency against mutant
[6] = target: β-lactamase mutant M69I (Escherichia coli, UniProt P62593, M67I); assay type: biochemical; conditions: number higher than 1 reflects a loss of potency against mutant
[7] = target: β-lactamase mutant R244S (Escherichia coli, UniProt P62593, R241S); assay type: biochemical; conditions: number higher than 1 reflects a loss of potency against mutant
[8] = target: T1, AmpC β-lactamase (Escherichia coli, UniProt P00811); assay: AmpC β-lactamase competitive inhibition assay (nitrocefin hydrolysis); assay type: biochemical
T1 construct: made in house; host or cells: E. coli BL21 (DE3)
T1 sequence (P00811 20-377): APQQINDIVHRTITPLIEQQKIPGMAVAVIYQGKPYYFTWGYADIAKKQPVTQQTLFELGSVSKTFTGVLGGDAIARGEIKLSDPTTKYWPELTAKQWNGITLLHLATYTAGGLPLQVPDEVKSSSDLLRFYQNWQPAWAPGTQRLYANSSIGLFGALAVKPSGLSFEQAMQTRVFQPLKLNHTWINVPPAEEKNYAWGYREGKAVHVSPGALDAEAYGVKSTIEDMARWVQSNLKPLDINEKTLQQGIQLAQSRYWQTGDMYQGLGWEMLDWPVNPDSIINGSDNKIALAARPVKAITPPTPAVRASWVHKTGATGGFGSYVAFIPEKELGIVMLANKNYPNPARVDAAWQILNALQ
Procedure: The gene for AmpC β-lactamase (accession number P00811) was obtained from Escherichia coli K12 strain W3110 (American Type Culture Collection, Rockville Md.). E. coli was grown and plasmid (F-lacIq lacPL8 ampC::lambdacI+) was isolated via Qiagen (Valencia, Calif.) mini prep. The gene for AmpC was amplified in two pieces via polymerase chain reaction, ligated and purified by agarose gel electrophoresis. The ligated gene was inserted into a pET200 vector via a TOPO reaction (Invitrogen, Carlsbad, Calif.).
BL21 (DE3) (Invitrogen) cells were transformed by heat-shock with the prepared plasmid. These cells were grown to an OD600 of 0.8 at 37° C. Isopropylthiogalactoside (IPTG) was added to 1 mM, incubation temperature decreased to 25° C. and the cells were grown for an additional 18 hours. After 18 hours, the E. coli was pelleted by centrifugation, and discarded. The growth media was concentrated and dialyzed versus 100 mM Tris, pH 7.0. This solution was run through an equilibrated Q-resin column, and washed with excess 100 mM Tris, pH 7.0.
The competitive inhibition of β-lactamase was determined spectrophotometrically using a Varian (Walnut Creek, Calif.) Cary 100 UV-Visible spectrophotometer. β-lactamase activity was followed by measuring the hydrolysis of nitrocefin, [3-(2,4-dinitrostyryl)-(6R, 7R)-7-(2-thienylacetamido)-ceph-3-em-4-carboxylic acid, E-isomer], (Calbiochem, San Diego, Calif.) at 486 nm. Inhibition assays were performed at 25° C. in 50 mM sodium phosphate, 5% DMSO, pH 7.0. […] Penicillin G (Sigma, St. Louis, Mo.) was also used as a substrate to determine KM and kcat.
Inhibitor was added to protein and incubated for ten minutes before the addition of substrate. Inhibition constants were determined by measuring the loss of P-lactamase activity with increasing inhibitor concentrations and fitting the data to standard equations for competitive inhibition.

[9] = target: T1, AmpC β-lactamase; conditions: binding to AmpC; ITC
Procedure: as §3
Isothermal titration calorimetry was undertaken to determine the thermodynamic characteristics of binding to AmpC β-lactamase.

## O=C(OCc1ccccc1)c1cc(B(O)O)cc([N+](=O)[O-])c1 [Compound F1201]
[1]
  ΔH wt: -3.2 kcal/mol
[2]
  ΔH M69I: -2.4 kcal/mol
[3]
  ΔH E104K: -3.5 kcal/mol
[4]
  ΔH R244S: -6.5 kcal/mol
[5]
  Loss of potency: ratio of the inhibitory constant between mutant and wild type (Potencywt/Potencymutant), E104K: 0.48
[6]
  Loss of potency: ratio of the inhibitory constant between mutant and wild type (Potencywt/Potencymutant), M69I: 0.52
[7]
  Loss of potency: ratio of the inhibitory constant between mutant and wild type (Potencywt/Potencymutant), R244S: 0.86
[8]
  Ki: 4.45 µM
[9]
  ΔG: -6.566 kcal/mol
  ΔH: -5.084 kcal/mol
  −TΔS: -1.482 kcal/mol
